Our source for the IC50 values is US20060142247A1, “Tricyclic heterocycles” (priority 2004, published 2006).

SMILES strings stand for the structures.

What is called IC50 is the point on the concentration scale where inhibition reaches its midpoint.

In this test the target is T1, Aurora A (Homo sapiens, UniProt O14965).
T1 construct: C-terminally Histidine4 (His4)-tagged Aurora A full-length protein; His4 (C)
T1 sequence (O14965 1-403): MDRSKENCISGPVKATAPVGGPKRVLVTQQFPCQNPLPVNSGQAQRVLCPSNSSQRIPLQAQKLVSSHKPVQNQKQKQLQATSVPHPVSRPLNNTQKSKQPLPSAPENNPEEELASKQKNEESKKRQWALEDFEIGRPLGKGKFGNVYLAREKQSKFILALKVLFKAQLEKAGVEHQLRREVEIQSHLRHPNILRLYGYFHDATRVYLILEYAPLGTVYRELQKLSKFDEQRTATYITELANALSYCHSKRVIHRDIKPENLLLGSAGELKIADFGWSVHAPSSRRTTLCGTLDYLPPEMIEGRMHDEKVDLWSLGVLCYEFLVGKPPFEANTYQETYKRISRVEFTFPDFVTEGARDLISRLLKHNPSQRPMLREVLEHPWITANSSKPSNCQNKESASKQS
As to the kind of experiment: IC50 determination for inhibitors of Aurora A (96 MTP-ELISA). It counts as biochemical. The following applies: His4-tagged full-length Aurora A 250 ng/ml, PKB-GSK2 200 nM, ATP 4 μM, 90 min room temperature, read-out: IC50 Aurora A kinase inhibition. The protocol:
Aurora A is a serine threonine kinase involved in spindle assembly and chromosome segregation. The assay is a typically ELISA-type assay where biotinylated substrate (PKB-GSK2) is phosphorylated. Phosphorylation is detected by peroxidase (POD) labelled polyclonal antibody (PAK<M-Ig>S-IgG-POD) and phosphopeptide monoclonal antibody (Mab) (MAK<P-GSK>M-27E5-IgG). The assay is validated for IC50-determination.
Assay plates: 96-well polystyrene plates, streptavidin-coated,
Samples: 10 mM in dimethylsulfoxide (DMSO)
Aurora A-His-4: C-terminally Histidine4 (His4)-tagged Aurora A full-length protein, stock solution 0.7 mg/ml, final conc.: 250 ng/ml
PKB-GSK2: biotinylated peptide derived from human GSK3-alpha sequence (Biotin-SGRARTSSFAEPGG-CONH2), stock solution 600 μM, final conc.: 200 nM
PAK<M-Ig>S-IgG-POD: Anti-mouse IgG, horse radish peroxidase(HRP)-linked Antibody, diluted in 3% BSA/PBS-T (1:10000), (Cell Signaling, Cat. No.: 7076)
MAK<P-GSK>M-27E5-IgG: Phospho-GSK-3-alpha (Ser 21) (27E5) Monoclonal Antibody, stock solution 1.85 mg/ml, diluted in 3% BSA/PBS-T (1:6000), final conc.: 0.31 μg/ml, (Cell Signaling, Cat. No.: 9337B)
ATP: Adenosine-5′-triphosphate 1 mM, diluted in kinase buffer, (Roche Diagnostics GmbH, Cat. No.: 127531-001,), final conc.: 4 μM
TRIS: 2-Amino-2-hydroxymethyl-1,3-propoanediol (“tris-(hydroxymethyl)-aminomethane”) (MERCK, Cat. No.: 108382.2500)
BSA: Bovine Serum Albumin Fraction V, fatty acid free (Roche Diagnostics GmbH, Cat. No. 9100221)
EDTA Titriplex III (di-Sodium-EDTA di-Hydrate), 120 mM, (MERCK, Cat. No.: 1.08418.1000)
ABTS buffer: ABTS (2,2′-azino-bis(3-ethylbenzthiazoline-6-sulfonic acid)) 16.7 mg/ml (Roche Diagnostics GmbH, Cat. No.: 1204530) • ABTS tablets: dissolve one ABTS tablet in 50 ml of working solution (ABTS buffer) (Roche Diagnostics GmbH, Cat. No.: 1112422 ) • Tween 20: Polysorbat 20 (Roche Diagnostics GmbH, Cat. No.: 10006394-001) • DTT: 1,4-Dithiothreitol (Roche Diagnostics GmbH, Cat. No.: 197777) • MgCl2×6H2O MERCK, Cat. No.: 105833.1000 • Kinase buffer: 50 mM TRIS, 10 mM MgCl2, 1 mM DTT, 0.1% Tween 20, pH 7.8 PBS-T (=Wash buffer) (PBS-T)10 g/l PBS(Phosphate buffered saline) with 0.033% Tween 20 • 3% BSA/PBS-T: 3% BSA dissolved in PBS-T Method
This assay is performed in 96-well format for IC50 determination with 5 samples (each with 8 concentrations by twofold testing), 100 μl incubation volume and the following plate layout:
S samples, with ATP, 1% DMSO, final conc.: a=100 μM, b=20 μM, c=4 μM, d=0.8 μM, e=0.16 μM, f=0.032 μM, g=0.0064 μM, h=0.00128 μM Step/Action • (1) Sample preparation: add 24 μl per well samples (descending sequence) diluted in kinase buffer to assay plate (final conc. for DMSO 1%). • 2. Add directly 16 μl Aurora-A-his-4 diluted in kinase buffer to assay plate. • 3. Add directly 40 μl per well PKB-GSK2/ATP mixture to assay plate, (final conc.: Aurora A=250 ng/ml, GSK2=200 nM, ATP=4 μM). Negative control: without ATP. • 4. Incubate assay plate for exactly 90 min at room temperature. • 5. Stop reaction by adding 20 μl EDTA in all wells. • 6. Wash assay plate 3× with 200 μl washing buffer per well. • 7. Add 100 μl MAK<P-GSK>M27E5-IgG (1:10000) and PAK<M-Ig>S-IgG-POD (1:6000) dissolved in 3% BSA/PBS-T to assay plate per well. • 8. Incubate assay plate for 60 min at room temperature. • 9. Wash assay plate 3× with 200 μl washing buffer per well • 10. Add 100 μl ABTS solution to assay plate per well, incubate for approx. 4 min at RT on MTP shaker. • 11. Measure absorption at 405/492 nm. • 12. Calculate % inhibition as: (1−(Esample−ENC)/(EPC−ENC))×100 1)
13. Calculate IC50 using a non-linear curve fit (XLfit software (ID Business Solution Ltd., Guilford, Surrey, UK))
A general note: ELISA stands for enzyme-linked immunosorbent assay.
As for `CC1(C)C(=O)N(Cc2nnn[nH]2)c2cc3[nH]c(-c4n[nH]c5ccccc45)nc3cc21` [Example 33, 2-(1H-Indazol-3-yl)-7,7-dimethyl-5-(1H-tetrazol-5-ylmethyl)-5,7-dihydro-3H-imidazo[4,5-f]indol-6-one], the half-maximal inhibitory concentration (IC50) was 1 to 100 nM. Consider `COCCN1C(=O)C(C)(C)c2cc3nc(-c4n[nH]c5ccccc45)[nH]c3cc21` [Example 18, 2-(1H-Indazol-3-yl)-5-(2-methoxy-ethyl)-7,7-dimethyl-5,7-dihydro-3H-imidazo[4,5-f]indol-6-one], for which the half-inhibitory concentration (IC50) was in the range of 1 to 100 nM. Turning to `CN(C)CCNC(=O)CN1C(=O)C(C)(C)c2cc3nc(-c4n[nH]c5ccccc45)[nH]c3cc21` [Example 38, N-(2-Dimethylamino-ethyl)-2-[2-(1H-indazol-3-yl)-7,7-dimethyl-6-oxo-6,7-dihydro-3H-imidazo[4,5-f]indol-5-yl]-acetamide], the IC50 fell in the range of 1 to 100 nM.

Turning to `CC1(C)C(=O)N(Cc2cccnc2)c2cc3[nH]c(-c4n[nH]c5ccccc45)nc3cc21` [Example 16, 2-(1H-Indazol-3-yl)-7,7-dimethyl-5-pyridin-3-ylmethyl-5,7-dihydro-3H-imidazo[4,5-f]indol-6-one], the IC50 lay in the range of 1 to 100 nM.

`CC1(C)C(=O)N(CCNC(=O)c2ccccc2)c2cc3[nH]c(-c4n[nH]c5ccccc45)nc3cc21` [Example 53, N-{2-[2-(1H-Indazol-3-yl)-7,7-dimethyl-6-oxo-6,7-dihydro-3H-imidazo[4,5-f]indol-5-yl]-ethyl}-benzamide]: the IC50 lay within 1 to 100 nM. Regarding `CC1(C)C(=O)N(CC(=O)N2CCCCC2)c2cc3[nH]c(-c4n[nH]c5ccccc45)nc3cc21` [Example 44, 2-(1H-Indazol-3-yl)-7,7-dimethyl-5-(2-oxo-2-piperidin-1-yl-ethyl)-5,7-dihydro-3H-imidazo[4,5-f]indol-6-one], the IC50 is 1 to 100 nM.

For `CN1CCN(C(=O)CN2C(=O)C(C)(C)c3cc4nc(-c5n[nH]c6ccccc56)[nH]c4cc32)CC1` [Example 42, 2-(1H-Indazol-3-yl)-7,7-dimethyl-5-[2-(4-methyl-piperazin-1-yl)-2-oxo-ethyl]-5,7-dihydro-3H-imidazo[4,5-f]indol-6-one], the IC50 lay within 1 to 100 nM. For `CC1(C)CC(=O)Nc2cc3nc(-c4n[nH]c5ccccc45)[nH]c3cc21` [Example 10, 2-(1H-Indazol-3-yl)-8,8-dimethyl-1,5,7,8-tetrahydro-imidazo[4,5-g]quinolin-6-one] the value was 100 to 250 nM; for `CC1(C)C(=O)N(CC(=O)NCC(O)CO)c2cc3[nH]c(-c4n[nH]c5ccccc45)nc3cc21` (stereo not shown) [Example 48, N-(2,3-Dihydroxy-propyl)-2-[2-(1H-indazol-3-yl)-7,7-dimethyl-6-oxo-6,7-dihydro-3H-imidazo[4,5-f]indol-5-yl]-acetamide], 1 to 100 nM. For `CC1(C)C(=O)N(CC(O)CN2CCOCC2)c2cc3[nH]c(-c4n[nH]c5ccccc45)nc3cc21` (stereo not shown) [Example 29, 5-(2-Hydroxy-3-morpholin-4-yl-propyl)-2-(1H-indazol-3-yl)-7,7-dimethyl-5,7-dihydro-3H-imidazo[4,5-f]indol-6-one] the value was 1 to 100 nM.
